Reference: US10000791B2, “Measurement method for human pancreatic lipase activity” (ASAHI KASEI PHARMA CORPORATION, priority 2013, dated 2018)

Tested on: human pancreatic lipase
Assay: lipase activity measured in control, normal and heparin-administered samples with each reagent (1,2-dioleoyl glycerol, UV method; Liquitech Lipase Color II for verification)
Assay type: biochemical
Parameters: lipase activity relative to (1) comparative example NaDCA (Table 1): concentration or dose not given beside the values
Settings: for lipase activity (Table 1): NaDCA pH 8.15, other bile salts pH 7.0; for lipase activity relative to (1) comparative example NaDCA (Table 1): pH 7.0
Protocol: A mixture of the substrate stock solution and the R-1 in a proportion of 1:2 was used as a first reagent. The R-2 was directly used as a second reagent. As a sample, pooled serum or a control sample (a control containing a pancreatic lipase) was used. A proportion in amount among the sample, the first reagent and the second reagent was set as sample:first reagent:second reagent of 0.01 ml:0.18 ml:0.06 ml. The sample was added to the first reagent, the resultant mixture was heated at 37° C. for 5 minutes, the second reagent was added thereto, and a change rate of an absorbance at 340 nm based on reduced NADP was obtained at 37° C. from 3 minutes after the addition of the second reagent to 4 minutes after the addition, and then, the lipase activity was calculated by using a molecular extinction coefficient of 6300 L/mol·cm of the reduced NADP. Besides, as a sample blank, saline was used instead of a sample, an absorbance was measured by using the reagent for sample blank obtained by removing MGLPII from the second reagent, and a difference between the thus measured two values was defined as an enzyme activity value. For the measurement, Hitachi automatic analyzer Model H7170 or H7080 was used.
Similarly to Example 1, a mixture of the substrate stock solution and the R-1 in a proportion of 1:2 was used as a first reagent. Except for this, the measurement was performed in the same manner as in Example 1.
A commercially available reagent for a resorufin colorimetric method, “Liquitech Lipase Color II” manufactured by Roche Diagnostics using 1,2-O-dilauryl-rac-glycerol-3-glutaric acid-(6-methylresorufin)ester (DGGR), which is regarded not to be influenced by a non-pancreatic lipase, such as a lipoprotein lipase or a hepatic lipase, appearing in blood due to administration of heparin, was used for verifying the effect of the present example. “Liquitech Lipase Color II” was used in accordance with the package insert, and a special calibrator was used for calculating the enzyme activity. […] The concentration of each bile acid used in the present example was set to be the same as that in the comparative example.
As samples, a control, non-heparin-administered samples (normal samples), and heparin-administered samples were used.
The compositions of the reagents were the same as those of Example 2. As a comparative example, NaDCA (in a concentration of 40 mmol/L in the R-1) was used as the bile acid, and the reaction solution was adjusted to pH 8.15 (by the Bicine buffer) for measuring a heparin-administered sample.
It is noted that CRM-001b containing a human pancreatic recombinant lipase dissolved not in distilled water but in a pooled serum was used as the calibrator to calculate the lipase activity.
As a bile acid of the present example and a reference example, NaTDCA was selected, and the pH dependence with the pH of a reaction solution changed in a range of 6.2 to 7.6 was examined. It is noted that a case of pH 7.6 was used as the reference example. An MES buffer was used for adjusting pH to 6.2 and 6.4, and the BES buffer was used for adjusting the other pHs. As samples, (six) control samples (controls each containing a pancreatic lipase) and (nine) heparin-administered samples were used. As a comparative example, NaDCA (in a concentration of 40 mmol/L in the R-1) was used as the bile acid, and a reaction solution having pH 8.15 (the Bicine buffer) was used. Besides, “Liquitech Lipase Color II” manufactured by Roche Diagnostics was used for verifying the effect of the present example.

- lipase activity (Table 1) (Normal sample 1): 43.4 U/L
- lipase activity relative to (1) comparative example NaDCA (Table 1) (Normal sample 1): 111.1%
- lipase activity (Table 1) (Normal sample 2): 96.4 U/L
- lipase activity relative to (1) comparative example NaDCA (Table 1) (Normal sample 2): 101.4%
- lipase activity (Table 1) (Normal sample 3): 50.7 U/L
- lipase activity relative to (1) comparative example NaDCA (Table 1) (Normal sample 3): 108.7%
- lipase activity (Table 1) (Normal sample 4): 44.5 U/L
- lipase activity relative to (1) comparative example NaDCA (Table 1) (Normal sample 4): 102.3%
- lipase activity (Table 1) (Normal sample 5): 31.7 U/L
- lipase activity relative to (1) comparative example NaDCA (Table 1) (Normal sample 5): 77.8%
- lipase activity (Table 1) (sample Heparin 1): 30.1 U/L
- lipase activity relative to (1) comparative example NaDCA (Table 1) (sample Heparin 1): 39.2%
- lipase activity (Table 1) (sample Heparin 2): 44.2 U/L
- lipase activity relative to (1) comparative example NaDCA (Table 1) (sample Heparin 2): 50.9%
- lipase activity (Table 1) (sample Heparin 3): 37.9 U/L
- lipase activity relative to (1) comparative example NaDCA (Table 1) (sample Heparin 3): 33.6%
- lipase activity (Table 1) (sample Heparin 4): 28.9 U/L
- lipase activity relative to (1) comparative example NaDCA (Table 1) (sample Heparin 4): 28.5%
- lipase activity (Table 1) (sample Heparin 5): 30.1 U/L
- lipase activity relative to (1) comparative example NaDCA (Table 1) (sample Heparin 5): 44.0%
- lipase activity (Table 1) (sample Heparin 6): 30.1 U/L
- lipase activity relative to (1) comparative example NaDCA (Table 1) (sample Heparin 6): 43.4%
- lipase activity (Table 1) (sample Heparin 7): 50.4 U/L
- lipase activity relative to (1) comparative example NaDCA (Table 1) (sample Heparin 7): 36.4%
- lipase activity (Table 1) (sample Heparin 8): 54.7 U/L
- lipase activity relative to (1) comparative example NaDCA (Table 1) (sample Heparin 8): 43.4%
- lipase activity (Table 1) (sample Heparin 9): 82.4 U/L
- lipase activity relative to (1) comparative example NaDCA (Table 1) (sample Heparin 9): 48.8%
- lipase activity (Table 3) (sample Heparin 21, pH 6.2): 35.9 U/L
- lipase activity (Table 3) (sample Heparin 21, pH 6.4): 37.9 U/L
- lipase activity (Table 3) (sample Heparin 21, pH 6.6): 40.9 U/L
- lipase activity (Table 3) (sample Heparin 21, pH 6.9): 48.6 U/L
- lipase activity (Table 3) (sample Heparin 21, pH 7.2): 47.6 U/L
- lipase activity (Table 3) (sample Heparin 21, pH 7.4): 44.5 U/L
- lipase activity (Table 3) (sample Heparin 21, pH 7.6): 34.7 U/L
- lipase activity (Table 3) (sample Heparin 22, pH 6.2): 39.7 U/L
- lipase activity (Table 3) (sample Heparin 22, pH 6.4): 41.7 U/L
- lipase activity (Table 3) (sample Heparin 22, pH 6.6): 45.5 U/L
- lipase activity (Table 3) (sample Heparin 22, pH 6.9): 53.6 U/L
- lipase activity (Table 3) (sample Heparin 22, pH 7.2): 52.6 U/L
- lipase activity (Table 3) (sample Heparin 22, pH 7.4): 49.2 U/L
- lipase activity (Table 3) (sample Heparin 22, pH 7.6): 38.3 U/L
- lipase activity (Table 3) (sample Heparin 23, pH 6.2): 61.0 U/L
- lipase activity (Table 3) (sample Heparin 23, pH 6.4): 63.0 U/L
- lipase activity (Table 3) (sample Heparin 23, pH 6.6): 71.4 U/L
- lipase activity (Table 3) (sample Heparin 23, pH 6.9): 81.7 U/L
- lipase activity (Table 3) (sample Heparin 23, pH 7.2): 80.5 U/L
- lipase activity (Table 3) (sample Heparin 23, pH 7.4): 75.8 U/L
- lipase activity (Table 3) (sample Heparin 23, pH 7.6): 58.6 U/L
- lipase activity (Table 3) (sample Heparin 24, pH 6.2): 44.9 U/L
- lipase activity (Table 3) (sample Heparin 24, pH 6.4): 46.9 U/L
- lipase activity (Table 3) (sample Heparin 24, pH 6.6): 51.8 U/L
- lipase activity (Table 3) (sample Heparin 24, pH 6.9): 60.4 U/L
- lipase activity (Table 3) (sample Heparin 24, pH 7.2): 59.4 U/L
- lipase activity (Table 3) (sample Heparin 24, pH 7.4): 55.7 U/L
- lipase activity (Table 3) (sample Heparin 24, pH 7.6): 43.2 U/L
- lipase activity (Table 3) (sample Heparin 25, pH 6.2): 38.0 U/L
- lipase activity (Table 3) (sample Heparin 25, pH 6.4): 40.0 U/L
- lipase activity (Table 3) (sample Heparin 25, pH 6.6): 43.5 U/L
- lipase activity (Table 3) (sample Heparin 25, pH 6.9): 51.4 U/L
- lipase activity (Table 3) (sample Heparin 25, pH 7.2): 50.4 U/L
- lipase activity (Table 3) (sample Heparin 25, pH 7.4): 47.1 U/L
- lipase activity (Table 3) (sample Heparin 25, pH 7.6): 36.7 U/L
- lipase activity (Table 1) (sample PRECINORM): 52.1 U/L
- lipase activity (Table 3) (sample PRECINORM, pH 6.2): 46.8 U/L
- lipase activity (Table 3) (sample PRECINORM, pH 6.4): 50.0 U/L
- lipase activity (Table 3) (sample PRECINORM, pH 6.6): 52.6 U/L
- lipase activity (Table 3) (sample PRECINORM, pH 6.9): 67.1 U/L
- lipase activity relative to (1) comparative example NaDCA (Table 1) (sample PRECINORM): 102.1%
- lipase activity (Table 3) (sample PRECINORM, pH 7.2): 59.5 U/L
- lipase activity (Table 3) (sample PRECINORM, pH 7.4): 57.1 U/L
- lipase activity (Table 3) (sample PRECINORM, pH 7.6): 52.0 U/L
- lipase activity (Table 1) (sample PRECIPATH): 134.6 U/L
- lipase activity (Table 3) (sample PRECIPATH, pH 6.2): 110.7 U/L
- lipase activity (Table 3) (sample PRECIPATH, pH 6.4): 109.5 U/L
- lipase activity (Table 3) (sample PRECIPATH, pH 6.6): 140.3 U/L
- lipase activity (Table 3) (sample PRECIPATH, pH 6.9): 157.3 U/L
- lipase activity relative to (1) comparative example NaDCA (Table 1) (sample PRECIPATH): 105.2%
- lipase activity (Table 3) (sample PRECIPATH, pH 7.2): 159.2 U/L
- lipase activity (Table 3) (sample PRECIPATH, pH 7.4): 152.7 U/L
- lipase activity (Table 3) (sample PRECIPATH, pH 7.6): 110.7 U/L
- lipase activity (Table 3) (sample Pool 1, pH 6.2): 42.1 U/L
- lipase activity (Table 3) (sample Pool 1, pH 6.4): 44.6 U/L
- lipase activity (Table 3) (sample Pool 1, pH 6.6): 45.2 U/L
- lipase activity (Table 3) (sample Pool 1, pH 6.9): 53.0 U/L
- lipase activity (Table 3) (sample Pool 1, pH 7.2): 52.4 U/L
- lipase activity (Table 3) (sample Pool 1, pH 7.4): 45.4 U/L
- lipase activity (Table 3) (sample Pool 1, pH 7.6): 39.1 U/L
- lipase activity (Table 3) (sample Pool 2, pH 6.2): 22.8 U/L
- lipase activity (Table 3) (sample Pool 2, pH 6.4): 24.8 U/L
- lipase activity (Table 3) (sample Pool 2, pH 6.6): 23.6 U/L
- lipase activity (Table 3) (sample Pool 2, pH 6.9): 28.0 U/L
- lipase activity (Table 3) (sample Pool 2, pH 7.2): 28.2 U/L
- lipase activity (Table 3) (sample Pool 2, pH 7.4): 27.0 U/L
- lipase activity (Table 3) (sample Pool 2, pH 7.6): 18.3 U/L
- lipase activity (Table 3) (sample Seraclear, pH 6.2): 23.7 U/L
- lipase activity (Table 3) (sample Seraclear, pH 6.4): 25.4 U/L
- lipase activity (Table 3) (sample Seraclear, pH 6.6): 28.6 U/L
- lipase activity (Table 3) (sample Seraclear, pH 6.9): 31.7 U/L
- lipase activity (Table 3) (sample Seraclear, pH 7.2): 33.8 U/L
- lipase activity (Table 3) (sample Seraclear, pH 7.4): 31.4 U/L
- lipase activity (Table 3) (sample Seraclear, pH 7.6): 20.2 U/L
SMILES: C[C@H](CCC(=O)NCCS(=O)(=O)[O-])[C@H]1CC[C@H]2[C@@H]3CC[C@@H]4C[C@H](O)CC[C@]4(C)[C@H]3C[C@H](O)[C@]12C.[Na+] [NaTDCA, sodium taurodeoxycholate]
